Test results taken from patent publication US20180200259A1 (priority 2015, published 2018).
Structures can show the parent of a compound that is named as a salt. Where two headings read alike, the source gives them in different places.

Key:
[1] = test system: Bv-2 microglial cells; experiment: Aβ oligomer clearance measurement in Bv-2 microglial cell cultures; type: cell-based; settings: 0.33 μM galantamine; 24 h before oligomerized Aβ1-42 (10 μM) for 6 h
Procedure: Aβ oligomers were prepared using beta-amyloid (1-42) from American Peptide (Product #62-0-80). One aliquot was dissolved in an adequate volume of TBS (50 mM Tris-Buffer, 150 mM NaCl, pH-7.4) to achieve a final concentration of 1.7 mg/ml (corresponding to 340 μM). The solution was sonicated for 2 minutes and then diluted 1:2 in water to obtain a final concentration of 170 μM. Next, the Aβ was allowed to aggregate at 4° C. for 48 hours. Prior to application, the solution was sonicated for another minute.
Bv-2 microglial cells were kept in culture medium (DMEM medium, 10% FBS, 2 mM glutamine, 1% Penc/Strep) until 80-90% confluency. Cells were maintained at 37° C., 95% humidity and 5% CO2. Afterwards, cells were seeded in culture medium on 24-well plates at a cell density of 1×10^5 cells per well. After 24 h, the medium was exchanged for the treatment medium (DMEM medium, 5% FBS, 2 mM glutamine). […] The medium was separated by affinity (removing monomers) and the oligomers not phagocytosed were disaggregated by hexafluoroisopropanol (HFIP) treatment and measured by MSD. […]
The immune assay was carried out according to the Mesoscale Discovery manual and plates were read on the Sector Imager (MSD). Analyte levels were evaluated according to adequate Aβ peptide standards (MSD). […] Data are presented as mean ±standard error of mean (SEM) Group differences are evaluated by one-way ANOVA.

[2] = test system: Rat cortical neurons; experiment: Neurite assessment: Aβ1-42 oligomer injury of cortical neurons (MAP-2); type: cell-based; settings: 1 μM; Aβ oligomer 20 μM, 24 h
Procedure: Rat cortical neurons were cultured as described by Callizot et al (J Neurosci Res 2013; 91:706-716). On day II of culture, Aβ oligomer solution, 20 μM, was applied. The Aβ oligomer preparation, having an average weight of 90 kDa, prepared as described by Callizot et al (op cit) contained only diffusible species, not fibrils or protofibrils. Briefly, Aβ1-42 peptide at a concentration of 40 μM was dissolved in the culture medium, gently agitated for 3 days at 37° C. in the dark, and used immediately after dilution. Test compound and BDNF (50 ng/ml) were dissolved in culture medium (maximum of 0.1% DMSO final concentration) then pre-incubated with primary cortical neurons for 24 h before the Aβ1-42 oligomer solution application
The oligomers were incubated with the neurons and various concentrations of test compound or BDNF, 50 ng/ml, the positive control, for 24 hours, in 6 replicates per condition. Then the supernatant was removed and the neurons were fixed with a cold ethanol and acetic acid solution. The cells were permeabilized with 0.4% saponin and then incubated for 2 h with mouse monoclonal antibody […] microtubule-associated protein 2 (MAP-2). Subsequently, Alexa-Fluor 488 goat anti-mouse IgG was applied, and images were obtained and analyzed automatically.

[3] = test system: CA1 pyramidal neurons in the dorsal hippocampus; experiment: Dendritic spine assessment (Afraxis ESP) after five days ip dosing; type: in vivo, mice; settings: 0.1 mg/kg per day for five days
Procedure: Adult C57B16 mice, (8 weeks old) were administered vehicle or test sample, 0.005, 0.03, 0.07, 0.1 or 0.2 mg/kg, ip, per day for five days prior to sacrifice after rapid anesthetization with isofluorane. Brain tissue was sectioned into […] slices from anterior to posterior extremes.
Ballistic dye labelling was performed, followed by laser-scanning confocal microscopy (Olympus FV1000) using a 63× objective (1.42 NA) to scan individually labelled neurons at high resolution (0.103×0.103×0.33 μm voxels). Target neurons were identified in the brain region of interest by anatomical location and cell morphology. Microscopy was performed blind to experimental conditions. A minimum of 5 samples per animal were measured for each segment.
Afraxis ESP dendritic spine analysis and assessment of dendritic membrane integrity. Blind deconvolution (AutoQuant) was applied to raw three-dimensional digital images which were then analyzed for spine density and morphology by trained analysts, individual spines were measured manually for (a) head diameter, (b) length, and (c) neck thickness from image Z-stacks using custom-built Afraxis ESP software. Each dendrite was analyzed by 3 independent analysts. […]
Statistics. […] For all group comparisons of parametric values, statistical significance was determined using the analysis of variance test (ANOVA; SPSS). […]

[4] = test system: adrenal chromaffin and human neuroblastoma cells; settings: comparison cholinesterase inhibitor; cited from earlier work
[5] = test system: mild to moderate AD patients; settings: cited from earlier work

## COc1ccc2c3c1O[C@H]1C[C@@H](O)C=C[C@@]31CCN(C)C2 [Galantamine hydrobromide]
[1]
  Aβ1-42 oligomers in the medium: reduced Aβ1-42 oligomers in the medium significantly
[2]
  protective effect on neurite network reduced by Aβ oligomer: significant protective effect
[3]
  spine density in apical dendritic samples: significant increase

## Nc1c2c(nc3ccccc13)CCCC2 [tacrine]
[4]
  neuroprotective effect against induced apoptosis: did not occur

## Solanezumab: antibody directed at the central portion of Aβ
[5]; Expedition I
  functional decline as measured by the ADCS-ADL: not significantly affected
[5]; Expedition II
  reduction of functional decline as measured by the ADCS-ADL: 19%
[5]; patients not receiving cholinesterase inhibitors (no SOC)
  additional cognitive deterioration on the ADAS-cog versus placebo: 3.6 points
[5]; patients on memantine only
  additional cognitive deterioration on the ADAS-cog versus placebo: 4.1 points
